Measured values from patent publication US6992064B2, “N-alkylglycine trimeres capable of protecting neurons against excitotoxic aggressions and compositions containing such trimeres” (Diverdrugs, S.L., priority 2000, dated 2006).

Assays:
[1] = test system: primary cultures of rat cerebellum neurones; experiment: Neuroprotection of primary cultures of rat cerebellar neurones against excitotoxic aggression (L-glutamate/glycine); assay type: cell-based; conditions: for decrease of neuronal death: rat cerebellar neurones, 10 μM glycine, prolonged (≧3 h) L-glutamate, read 24 hours post-aggression; for neuroprotector activity (enantiomers versus racemic mixture): primary cultures of cerebellar neurons, L-glutamate 1 mM
Source text: The neuroprotector mechanism implies, at least in part, the blocking of the glutamate ionotropic receptors, as is made manifest by the inhibition of the ionic current activated by the NMDA type of glutamatergic receptor agonist expressed in X. laevis ovocites (19,20). An important advantage of these biological tests is that they permit the search for neuroprotectors in functionally active systems, increasing the potentiality of its in vivo use.
Two complementary biological tests were used in order to evaluate the biological activity of the N-alkylglycine trimeres obtained in Example 1.1. The first evaluates the efficiency and power with which said compounds block the ionic current activated by agonists in X. laevis ovocites that express the NMDA receptor. The second, determines the neuroprotector efficiency of the N-alklyglycine trimeres in primary cultures of neurones subjected to an excitotoxic aggression, such as prolonged exposure to L-glutamate and glycine.
It was also observed that the N-alkylglycine trimeres tested protected primary neuronal cultures coming from the cerebellum of rats pre-exposed to 10 μM glycine versus the prolonged exposure (≧3 h) of L-glutamate or N-methyl-D-aspartate at a concentration of […]. The test consists of extracting the cerebellar neurones of baby rats, 7–8 days old, cultivating them in plates in a culture medium supplemented with bovine foetal serum (22). After 13–19 days under culture, the excitotoxic aggression with L-glutamate is performed, monitoring the neuronal death in the absence and presence of the N-alkylglycine trimeres 24 hours post-aggression using two fluorescent dyes: the fluorescent diacetate that indicates the number of viable cells, and the propydium iodine that informs of the number of dead cells (23). As an example, the N-alkylglycine trimere identified as compound [1] decreased a 95% of the neuronal death at a concentration of 30 μg/ml; compound [5] an 85% at 30 μg/ml; compound [23a] a 57% at a concentration of 50 μg/ml, and compound [24] a 60% at 50 μg/ml.
On the other hand, due to the fact that some formula I N-alkylglycine trimeres may be presented as stereoisomers, the possibility that the neuroprotector activity of the racemic mixture preferably corresponded to one of the isomers, was evaluated. For this, the neuroprotector activity of the enantiomers identified as [23b] and [23c] was evaluated, (see Table 1) in primary cultures of cerebellar neurons exposed to excitotoxic aggression, such as the incubation with L-glutamate 1 mM comparing it with the neuroprotector activity of a racemic mixture of said enantiomers. […] Likewise, said power was similar to the one presented by the racemic mixture.

[2] = test system: ammonium-induced neurotoxicity in mice; experiment: Neurotoxicity model in mice induced by injection of high doses of ammonium (death due to NMDA receptor hyperactivation); assay type: in vivo; conditions: 0.05–0.1 mg/g intraperitoneal, 10 minutes before 12 mmol/kg ammonium acetate; 24 hours post-injection
Procedure: A neurotoxicity model was used on mice induced by the injection of high doses of ammonium, the result of which is the death of the animal due to the hyperactivation of the NMDA receptor. The test consists in the intraperitoneal injection in mice of an amount of N-alkylglycine trimere of 0.05–0.1 mg/g, followed, after 10 minutes, with an injection of 12 mmol/kg of ammonium acetate. After 24 hours post-injection, the number of dead mice was determined. The N-alkylglycine trimere identified as compound [24] protected 82% of the mice, whilst the N-alkylglycine trimere identified as compound [23a] protected 100% of the animals.

Row | SMILES | neuroprotector activity (enantiomers versus racemic mixture) [1] | decrease of neuronal death ([1]; 30 μg/ml) [%] | further results
1 | CCC(C)N(CC(N)=O)C(=O)CN(C(=O)CNCCN1CCCC1)C1CC1 (racemic) [compound [23a], [N-[2-(N-pyrrolidinyl)ethyl]glycyl]-[N-(cyclopropyl)glycyl]-N-((R,S)-sec-butyl)glycinamide] |  |  | decrease of neuronal death ([1]; 50 μg/ml): 57%; mice protected from death [2]: 100%
2 | CC[C@@H](C)NC(=O)CN(C(=O)CNCCN1CCCC1)C(=O)CNC1CC1 [[23b], [N-[2-(N-pyrrolidinyl)ethyl]glycyl]-[N-(cyclopropyl)glycyl]-N-((R)-sec-butyl)glycinamide] | neuroprotectors with equal power |  | 
3 | CC[C@H](C)NC(=O)CN(C(=O)CNCCN1CCCC1)C(=O)CNC1CC1 [[23c], [N-[2-(N-pyrrolidinyl)ethyl]glycyl]-[N-(cyclopropyl)glycyl]-N-((S)-sec-butyl)glycinamide] | neuroprotectors with equal power |  | 
4 | CCN(CC)CCCN(CC(=O)N(CCNC(C)=O)CC(N)=O)C(=O)CNCCC(c1ccccc1)c1ccccc1 [compound [1]] [[N-[3,3-diphenylpropyl]glycyl]-[N-[3-(N,N-diethylamine)propyl]glycyl]-N-[2-(methylcarbonylamine)ethyl]glycinamide] |  | 95 | 
5 | CCN(CC)CCCN(CC(=O)N(CCNC(C)=O)CC(N)=O)C(=O)CNCCC(c1ccccc1)c1ccccc1 [compound [5]] [[N-[3,3-diphenylpropyl]glycyl]-[N-[3-N,N-diethylamine)propyl]glycyl]-N-[2-(methylcarbonylamine)ethyl]glycinamide] |  | 85 | 
